Legend:
[1] = system: Human epidermal keratinocytes (HaCaT cells); assay: "scrape" in vitro wound healing model (wound closure of a scraped confluent monolayer); format: cell-based; details: for wound width, day 1: day 1 (24 hours); for wound width, day 2: day 2 (48 hours); for ability to enhance keratinocyte wound closure compared with thyroglobulin and TGF-β1 inhibitor: at all concentrations of agents
Method: The “scrape” in vitro wound healing model has been previously presented in the literature (Li, F. et al., 2000, Exp Cell Res., 258(2): 245-253; Firth J. D. et al., 2004, J. Invest. Dermatol., 122(1): 222-231). In this model a scrape across a confluent monolayer of cells is used to simulate a wound and the effect of agents added to serum free media is tested on the rate of closure of the gap.
Human epidermal keratinocytes (HaCaT cells) were plated at a density of 1×10^5 cells/well into Nunc 6 well plates in Dulbecco's Modified Eagle Medium (DMEM) containing 10% fetal bovine serum (FBS) benzyl penicillin (100 IU/ml), streptomycin […] confluence (2 days) monolayers were “wounded” with a 1 ml pipette tip (0.5 mm width) by scraping the tip across the centre of the well. The wells were then washed 5 times with DMEM. One ml of either DMEM with 10% FBS, DMEM or DMEM with: 3, 6, 12 or 24 mgs/ml bovine fetuin A (Sigma), 6.25, 12.5, 25 or 50 μg/ml peptide TGF peptide antagonist (Corresponding to residues 41-65 of TGFβ-1-3:—Huang S. S. et al., 1997, Journal of Biological Chemistry, 272(43):27155-27159) and 2.1, 4.2, 8.4 and 16.8 mg/ml bovine thyroglobulin was added to each well (2 replicates per plate, 4 plates). These concentrations were calculated to have equivalent antagonistic effect on the binding of TGFβ-1 to its receptor for each of the compounds. All DMEM solutions used contained benzyl penicillin (100 IU/ml), streptomycin ([…]) and fungizone (250 mg/ml). A mark was placed on the base of each well at right angles to the “wound” and the wound was photographed at the intersection of the mark and wound with a Nikon EOS 300 digital camera fitted to a JenaMed (Ziess Jena) inverted microscope (50×). Images were taken at the same positions 24 and 48 hours after addition of the treatment media. Digital images were analysed with Image Pro (Media Cybernetics) image analysis software and an image of a Nikon stage micrometer was used for calibration of length measurements. Results were summarized as the wound width after 24 and 48 hours.

BMP-4 = molecular target: T1, BMP-4 (Homo sapiens, UniProt P12644); details: cited from earlier work
T1 sequence (P12644 293-408): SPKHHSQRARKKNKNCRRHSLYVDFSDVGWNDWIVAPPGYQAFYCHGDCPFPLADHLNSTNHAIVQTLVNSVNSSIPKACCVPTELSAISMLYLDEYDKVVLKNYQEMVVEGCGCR

[2] = 3 mgs/ml bovine fetuin A in DMEM
[3] = 6 mgs/ml bovine fetuin A in DMEM
[4] = 12 mgs/ml bovine fetuin A in DMEM
[5] = 24 mgs/ml bovine fetuin A in DMEM

With “Fetuin: bovine fetuin A (Sigma); glycoprotein also called alpha2-Heremans-Schmid-glycoprotein (AHSG)” the “wound width, day 0” value [1, 2] was 0.7602, the “wound width, day 1” value [1, 2] was 0.4265 and the “wound width, day 2” value [1, 2] was 0.02947. The “wound width, day 0” value [1, 3] was 0.7332, the “wound width, day 1” value [1, 3] was 0.3938 and the “wound width, day 2” value [1, 3] was 0.01441. For the same substance, the “wound width, day 0” value [1, 4] was 0.7231, the “wound width, day 1” value [1, 4] was 0.3699 and the “wound width, day 2” value [1, 4] was 0.000259. The “wound width, day 0” value [1, 5] was 0.6724, the “wound width, day 1” value [1, 5] was 0.3806 and the “wound width, day 2” value [1, 5] was 0.04348. The “ability to enhance keratinocyte wound closure compared with thyroglobulin and TGF-β1 inhibitor” value ([1]; listed as fetuin) was “markedly more effective than either thyroglobulin or a TGF-β1 inhibitor”, the “ability to enhance keratinocyte wound closure compared with thyroglobulin and TGF-β1 inhibitor” value ([1]; listed as fetuin A) was “significantly greater ability than thyroglobulin and TGFβ1 to enhance keratinocyte wound closure” and the “binding to BMP-4” value (BMP-4) was “strongly”.

— patent US20090130070A1, “METHOD OF TREATMENT” (The University of Queensland, priority 2004, published 2009)
